Where a name gives a salt, the structure may show the parent alone.

The first assay concerns Acinetobacter baumannii ATCC17961. The experiment in a line: Antimicrobial susceptibility testing: 90% growth inhibitory concentration (IC90) determination. It counts as cell-based. The settings on record: 90% growth inhibitory concentration, Acinetobacter baumannii ATCC17961, Iso-Sensitest broth, OD 600 nm over 16 h; read-out: ATCC 17961 IC90. Put shortly:
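A. baumannii ATCC17961 at ~5×10^5 CFU/ml in Iso-Sensitest broth exposed to 10-point twofold dilutions (e.g. 50–0.097 μM final), 35±2° C. OD600 read every 20 minutes over 16h; IC50 and IC90 derived from inhibition during logarithmic growth.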
For the compound “cis 2-[1-(azetidin-3-ylmethyl)-4-[4-[2-chloro-4-[[5-[3-fluoro-4-[1-(2-methoxyethyl)-3-methyl-pyrazol-4-yl]phenyl]-1-methyl-imidazole-2-carbonyl]amino]benzoyl]piperazine-1-carbonyl]piperidin-1-ium-1-yl]acetic acid; 2,2,2-trifluoroacetate [Example O7]”, the IC90 (as a rule, the concentration needed for an effect of 90%) was 0.14 µM.

Staying with this assay, now noted: Acinetobacter baumannii, ATCC17961, 16 h, 90% growth inhibitory concentration, Acinetobacter baumannii ATCC17961, Iso-Sensitest broth, OD 600 nm over 16 h; read-out: ATCC 17961 IC90.
Consider `COc1ccc(NC(=O)Cn2cc(-c3ccc(-c4cnc(C(=O)Nc5ccc(C(=O)N6CCN(C(=O)C7CC[N+](C)(C)CC7)CC6)c(Cl)c5)n4C)c(F)c3F)c(C)n2)nc1` [Example G28, N-[3-chloro-4-[4-(1,1-dimethylpiperidin-1-ium-4-carbonyl)piperazine-1-carbonyl]phenyl]-5-[2,3-difluoro-4-[1-[2-[(5-methoxy-2-pyridyl)amino]-2-oxo-ethyl]-3-methyl-pyrazol-4-yl]phenyl]-1-methyl-imidazole-2-carboxamide; formate], for which the concentration for an effect of 90% (IC90) was determined as 0.088 µM.

As for `Cc1nn(CC(=O)Nc2cccnn2)cc1-c1ccc(-c2cnc(C(=O)Nc3ccc(C(=O)N4CCN(C(=O)C5CC[N+](C)(C)CC5)CC4)c(Cl)c3)n2C)c(F)c1F` [Example G23, N-[3-chloro-4-[4-(1,1-dimethylpiperidin-1-ium-4-carbonyl)piperazine-1-carbonyl]phenyl]-5-[2,3-difluoro-4-[3-methyl-1-[2-oxo-2-(pyridazin-3-ylamino)ethyl]pyrazol-4-yl]phenyl]-1-methyl-imidazole-2-carboxamide; formate], the IC90 was 0.27 µM.

As for `COCCn1ncc(-c2ccc(-c3cnc(C(=O)Nc4ccc(C(=O)N5CCN(C(=O)C6CC[N+](CC(=O)O)(CC7CNC7)CC6)CC5)c(Cl)c4)n3C)c(Cl)c2F)c1C` (stereo not shown) [Example B37, 2-[1-(azetidin-3-ylmethyl)-4-[4-[2-chloro-4-[[5-[2-chloro-3-fluoro-4-[1-(2-methoxyethyl)-5-methyl-pyrazol-4-yl]phenyl]-1-methyl-imidazole-2-carbonyl]amino]benzoyl]piperazine-1-carbonyl]piperidin-1-ium-1-yl]acetic acid; formate], the concentration for an effect of 90% (IC90) turned out to be 0.2 µM.

For the compound `Cc1c(-c2cnc(C(=O)Nc3ccc(C(=O)N4CCN(C(=O)CCC[N+](C)(CC(=O)O)CC5CNC5)CC4)c(Cl)c3)n2C)ccc(-c2cnn(CCOC(F)F)c2C)c1F` (stereo not shown) [Example N1, azetidin-3-ylmethyl-(carboxymethyl)-[4-[4-[2-chloro-4-[[5-[4-[1-[2-(difluoromethoxy)ethyl]-5-methyl-pyrazol-4-yl]-3-fluoro-2-methyl-phenyl]-1-methyl-imidazole-2-carbonyl]amino]benzoyl]piperazin-1-yl]-4-oxo-butyl]-methyl-ammonium; formic acid; formate], the 90% effect concentration (IC90) was determined as 0.189 µM.

Take `COCCn1nc(C)c(-c2ccc(-c3cnc(C(=O)Nc4ccc(C(=O)N[C@H]5[C@@H]6CN(C(=O)[C@@H]7C[C@@H](O)C[N+]7(C)C)C[C@@H]65)c(Cl)c4)n3C)c(F)c2F)c1C` [Example D38, N-[3-chloro-4-[[(1R,5S)-3-[(2S,4R)-4-hydroxy-1,1-dimethyl-pyrrolidin-1-ium-2-carbonyl]-3-azabicyclo[3.10]hexan-6-yl]carbamoyl]phenyl]-5-[2,3-difluoro-4-[1-(2-methoxyethyl)-3,5-dimethyl-pyrazol-4-yl]phenyl]-1-methyl-imidazole-2-carboxamide; formate]: the IC90 was determined as 0.15 µM.

With `Cc1nn(CC(=O)Nc2ccnnc2)cc1-c1ccc(-c2cnc(C(=O)Nc3ccc(C(=O)N4CCN(C(=O)C5CC[N+](C)(C)CC5)CC4)c(Cl)c3)n2C)c(F)c1F` [Example G33, N-[3-chloro-4-[4-(1,1-dimethylpiperidin-1-ium-4-carbonyl)piperazine-1-carbonyl]phenyl]-5-[2,3-difluoro-4-[3-methyl-1-[2-oxo-2-(pyridazin-4-ylamino)ethyl]pyrazol-4-yl]phenyl]-1-methyl-imidazole-2-carboxamide; formate], the IC90 came to 0.44 µM.

For `COCCn1ncc(-c2ccc(-c3cnc(C(=O)Nc4ccc(C(=O)N5CCN(C(=O)C6CC[N+](C)(C)CC6)CC5)c(Cl)c4)n3C)c(F)c2F)c1Cl` [Example F31, N-[3-chloro-4-[4-(1,1-dimethylpiperidin-1-ium-4-carbonyl)piperazine-1-carbonyl]phenyl]-5-[4-[5-chloro-1-(2-methoxyethyl)pyrazol-4-yl]-2,3-difluoro-phenyl]-1-methyl-imidazole-2-carboxamide; formate], the 90% effect concentration (IC90) was 0.067 µM.

Regarding `Cc1nn(CCOCCN)c(C)c1-c1ccc(-c2cnc(C(=O)Nc3ccc(C(=O)N4CCN(C(=O)[C@@H]5C[C@@H](O)C[N+]5(C)C)CC4)c(Cl)c3)n2C)c(F)c1F` [Example K1, 5-[4-[1-[2-(2-aminoethoxy)ethyl]-3,5-dimethyl-pyrazol-4-yl]-2,3-difluoro-phenyl]-N-[3-chloro-4-[4-[(2S,4R)-4-hydroxy-1,1-dimethyl-pyrrolidin-1-ium-2-carbonyl]piperazine-1-carbonyl]phenyl]-1-methyl-imidazole-2-carboxamide; 2,2,2-trifluoroacetate], the IC90 stood at 0.6 µM.

The same assay, now with this note: Acinetobacter baumannii, ATCC17961, 16 h, read-out: ATCC 17961 IC90.
In the case of `COCCn1ncc(-c2ccc(-c3cnc(C(=O)Nc4ccc(C(=O)N5CCN(C(=O)[C@@H]6C[C@@H](O)C[N+]6(C)C)CC5)c(Cl)c4)n3C)c(C)c2F)c1C` [Example O11, N-[3-chloro-4-[4-[(2S,4R)-4-hydroxy-1,1-dimethyl-pyrrolidin-1-ium-2-carbonyl]piperazine-1-carbonyl]phenyl]-5-[3-fluoro-4-[1-(2-methoxyethyl)-5-methyl-pyrazol-4-yl]-2-methyl-phenyl]-1-methyl-imidazole-2-carboxamide; 2,2,2-trifluoroacetate], the IC90 came out at 0.156 µM.

As to `COCCn1cc(-c2ccc(-c3cnc(C(=O)Nc4ccc(C(=O)N5CCN(C(=O)C[N+]6(C)C[C@@H](O)[C@H](O)C6)CC5)c(Cl)c4)n3C)c(F)c2F)c(C)n1` [Example C10, N-[3-chloro-4-[4-[2-[(3R,4R)-3,4-dihydroxy-1-methyl-pyrrolidin-1-ium-1-yl]acetyl]piperazine-1-carbonyl]phenyl]-5-[2,3-difluoro-4-[1-(2-methoxyethyl)-3-methyl-pyrazol-4-yl]phenyl]-1-methyl-imidazole-2-carboxamide; formate], the IC90 stood at 0.28 µM.

With `COCCn1ncc(-c2ccc(-c3cnc(C(=O)Nc4ccc(C(=O)N5CCN(C(=O)CCC[N+](CCCCN)(CCCCN)CC(=O)O)CC5C)c(Cl)c4)n3C)c(F)c2F)c1C` (stereo not shown) [Example O3, bis(4-aminobutyl)-(carboxymethyl)-[4-[4-[2-chloro-4-[[5-[2,3-difluoro-4-[1-(2-methoxyethyl)-5-methyl-pyrazol-4-yl]phenyl]-1-methyl-imidazole-2-carbonyl]amino]benzoyl]-3-methyl-piperazino]-4-keto-butyl]ammonium formate], the 90% effect concentration (IC90) came out at 0.113 µM.

Take `Cc1nn(CC(F)F)cc1-c1ccc(-c2cnc(C(=O)Nc3ccc(C(=O)N4CCN(C(=O)C5CC[N+](C)(CC(N)=O)CC5)CC4)c(Cl)c3)n2C)c(F)c1F` (stereo not shown) [Example B7, N-[4-[4-[1-(2-amino-2-oxo-ethyl)-1-methyl-piperidin-1-ium-4-carbonyl]piperazine-1-carbonyl]-3-chloro-phenyl]-5-[4-[1-(2,2-difluoroethyl)-3-methyl-pyrazol-4-yl]-2,3-difluoro-phenyl]-1-methyl-imidazole-2-carboxamide; formate]: the IC90 is 0.17 µM.

The values are drawn from US12421211B2, “Heterocyclic compounds” (Hoffmann-La Roche Inc., priority 2021, dated 2025).
